The values below come from ChEMBL document CHEMBL1201862, “PubChem BioAssay data set” (2004).

Active and inactive are the calls of the source.

Experiment [1] in a line: Luminescence Cell-Based Dose Confirmation HTS to Identify Inhibitors of Platelet Dense Granule Release. [Related pubchem assays: 1663 (Primary HTS), 1678 (Summary of Project)]. It counts as functional.
A short description of experiment [2]: Fluorescence Cell-Based Dose Response to Identify Inhibitors of Thrombin Receptor-Activating Peptide SFLLRN-Mediated P-Selectin Induction on Platelets. [Related pubchem assays: 1663 (Primary HTS), 1889 (retest at dose ), 1891 (counterscreen), 1678 (Project Summary)]. The format is functional. A general note: The purpose of a counterscreen is to sort out artefacts and off-target activity.

Experiment [3] concerns the target Luciferin 4-monooxygenase (Photinus pyralis, UniProt P08659). The experiment is described as follows: firefly luciferase enzyme inhibitors, dose response, biochemical, luminescence (AID 1891).
Experiment [4] in a line: inhibitors of SFLLRN-triggered platelet P-selectin exposure, dose response, cell-based, fluorescence, flow cytometry, human platelets (AID 2511). The format is functional. (Flow cytometry measures light scatter and fluorescence of single cells or particles in a stream.)
For the next experiment, the target named is T1, Protein RecA (Mycobacterium tuberculosis, UniProt P9WHJ3).
T1 sequence (P9WHJ3 whole entry): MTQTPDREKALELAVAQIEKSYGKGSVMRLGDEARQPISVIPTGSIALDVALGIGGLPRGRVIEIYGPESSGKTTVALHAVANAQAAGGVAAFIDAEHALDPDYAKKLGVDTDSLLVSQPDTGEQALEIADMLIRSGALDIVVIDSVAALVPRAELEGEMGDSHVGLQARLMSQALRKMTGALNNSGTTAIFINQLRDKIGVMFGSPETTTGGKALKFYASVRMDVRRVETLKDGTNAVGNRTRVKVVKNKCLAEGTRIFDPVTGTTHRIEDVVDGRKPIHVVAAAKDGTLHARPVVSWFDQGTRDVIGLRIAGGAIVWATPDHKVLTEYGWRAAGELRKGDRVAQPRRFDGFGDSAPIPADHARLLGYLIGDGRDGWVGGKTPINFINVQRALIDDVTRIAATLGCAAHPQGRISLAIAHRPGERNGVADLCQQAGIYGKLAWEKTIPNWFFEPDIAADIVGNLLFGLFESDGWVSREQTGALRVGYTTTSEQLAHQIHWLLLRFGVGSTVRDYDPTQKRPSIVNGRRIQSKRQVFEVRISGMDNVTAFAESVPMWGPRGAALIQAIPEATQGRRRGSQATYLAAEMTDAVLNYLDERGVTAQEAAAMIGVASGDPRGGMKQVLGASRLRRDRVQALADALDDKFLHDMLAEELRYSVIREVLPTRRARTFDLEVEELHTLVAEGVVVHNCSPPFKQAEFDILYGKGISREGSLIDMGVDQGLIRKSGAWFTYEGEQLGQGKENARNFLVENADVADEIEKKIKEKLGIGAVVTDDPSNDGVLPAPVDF
In words: Fluorescence Cell-Free Homogeneous Dose Retest to Identify Inhibitors of RecA-Intein Splicing Activity. [Related pubchem assays (depositor defined):AID2097, AID2223, AID489010, AID492950]. The format is functional.

A further experiment addresses Bcl-2-like protein 1 (Homo sapiens, UniProt Q07817). In words: BCL-XL inhibitors, dose response, selectivity assay for MCL1 inhibitor project, biochemical, fluorescence polarization, 1536-well (AID 2218). In general terms: In fluorescence polarisation assays a small probe gives low polarisation when free and higher when bound to something large.
Experiment [5] deals with T2, Replicative DNA helicase DnaB (Mycobacterium tuberculosis, UniProt P9WMR3).
T2 sequence (P9WMR3 whole entry): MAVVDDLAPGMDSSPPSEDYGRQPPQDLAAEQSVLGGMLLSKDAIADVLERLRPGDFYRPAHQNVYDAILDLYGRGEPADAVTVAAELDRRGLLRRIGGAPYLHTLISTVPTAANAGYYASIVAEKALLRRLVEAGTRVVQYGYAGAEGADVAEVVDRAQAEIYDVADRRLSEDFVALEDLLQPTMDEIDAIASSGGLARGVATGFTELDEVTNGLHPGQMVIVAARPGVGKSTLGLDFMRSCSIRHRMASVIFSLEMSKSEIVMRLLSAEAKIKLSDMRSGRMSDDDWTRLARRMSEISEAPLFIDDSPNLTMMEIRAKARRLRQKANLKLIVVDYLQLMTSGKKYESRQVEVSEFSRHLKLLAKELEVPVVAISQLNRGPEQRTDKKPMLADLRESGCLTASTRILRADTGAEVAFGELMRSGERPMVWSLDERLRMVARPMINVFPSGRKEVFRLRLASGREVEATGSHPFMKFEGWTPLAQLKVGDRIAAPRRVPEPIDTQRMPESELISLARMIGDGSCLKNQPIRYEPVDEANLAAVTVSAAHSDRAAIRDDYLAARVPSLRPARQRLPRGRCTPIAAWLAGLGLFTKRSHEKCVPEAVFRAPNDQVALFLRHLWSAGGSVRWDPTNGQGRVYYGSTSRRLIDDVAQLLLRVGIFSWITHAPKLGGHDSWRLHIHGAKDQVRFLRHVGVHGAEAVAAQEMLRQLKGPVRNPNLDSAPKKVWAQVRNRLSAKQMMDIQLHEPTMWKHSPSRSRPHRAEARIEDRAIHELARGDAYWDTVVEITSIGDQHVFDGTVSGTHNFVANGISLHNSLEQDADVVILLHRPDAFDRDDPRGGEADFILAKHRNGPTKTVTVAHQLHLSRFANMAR
The experiment is described as follows: DnaB intein splicing inhibitors, dose response, biochemical, cell-free fluorescence (AID 449749). It counts as functional.

In experiment [6] the target is Induced myeloid leukemia cell differentiation protein Mcl-1 (Homo sapiens, UniProt Q07820). In words: MCL1-BIM BH3 interaction inhibitors, dose response, biochemical, fluorescence polarization, BIM-BH3 peptide, 1536-well (AID 2217).
Another experiment has as its target NADPH oxidase 1 (Homo sapiens, UniProt Q9Y5S8). The experiment is described as follows: Luminescence-based cell-based dose response assay to identify inhibitors of NADPH oxidase 1 (NOX1). The format is functional.
The target in experiment [7] is T3, Voltage-gated N-type calcium channel alpha-1B subunit/Amyloid beta A4 precursor protein-binding family A member 1 (Homo sapiens, UniProt Q00975+Q02410). The format is protein assay.
The target in experiment [8] is T4, RNA-binding protein pos-1 (Caenorhabditis elegans, UniProt G5EF15).
T4 sequence (G5EF15 whole entry): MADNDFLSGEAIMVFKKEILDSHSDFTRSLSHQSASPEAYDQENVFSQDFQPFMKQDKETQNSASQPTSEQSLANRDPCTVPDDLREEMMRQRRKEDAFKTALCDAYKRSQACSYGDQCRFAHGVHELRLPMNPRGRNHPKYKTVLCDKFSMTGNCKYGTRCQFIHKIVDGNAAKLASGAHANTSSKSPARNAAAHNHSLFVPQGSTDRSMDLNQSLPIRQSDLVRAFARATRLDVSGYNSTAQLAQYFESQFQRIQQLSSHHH
In words: inhibitors of POS-1/mex-3 RNA binding, dose response, biochemical, fluorescence polarization (AID 1964).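 Also: purified POS-1 fused to maltose binding protein made in E. coli; potency of compounds blocking POS-1 binding to fluorescent RNA.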

For experiment [9], the target named is T3, Voltage-gated N-type calcium channel alpha-1B subunit/Amyloid beta A4 precursor protein-binding family A member 1. The format is protein assay. This is another data set of the same source.
In experiment [10] the target is T5, Mannose-6-phosphate isomerase (Homo sapiens, UniProt P34949).
T5 sequence (P34949 whole entry): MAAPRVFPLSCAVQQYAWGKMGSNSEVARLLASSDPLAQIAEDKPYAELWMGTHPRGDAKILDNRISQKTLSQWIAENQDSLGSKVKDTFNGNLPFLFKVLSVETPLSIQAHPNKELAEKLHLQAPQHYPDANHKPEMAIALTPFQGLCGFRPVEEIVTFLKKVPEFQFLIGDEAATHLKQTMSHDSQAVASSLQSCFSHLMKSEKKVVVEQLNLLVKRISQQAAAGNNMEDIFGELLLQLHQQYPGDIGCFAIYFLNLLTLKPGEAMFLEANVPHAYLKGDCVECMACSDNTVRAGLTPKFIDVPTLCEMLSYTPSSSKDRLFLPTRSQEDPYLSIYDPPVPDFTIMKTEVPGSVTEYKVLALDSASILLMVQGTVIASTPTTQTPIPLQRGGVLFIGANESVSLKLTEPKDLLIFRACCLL
In words: inhibitors of human PMI, primary screen, biochemical, fluorescence intensity, coupled assay (AID 1209).

In experiment [11] the target is T6, Zinc finger protein mex-5 (Caenorhabditis elegans, UniProt Q9XUB2).
T6 sequence (Q9XUB2 whole entry): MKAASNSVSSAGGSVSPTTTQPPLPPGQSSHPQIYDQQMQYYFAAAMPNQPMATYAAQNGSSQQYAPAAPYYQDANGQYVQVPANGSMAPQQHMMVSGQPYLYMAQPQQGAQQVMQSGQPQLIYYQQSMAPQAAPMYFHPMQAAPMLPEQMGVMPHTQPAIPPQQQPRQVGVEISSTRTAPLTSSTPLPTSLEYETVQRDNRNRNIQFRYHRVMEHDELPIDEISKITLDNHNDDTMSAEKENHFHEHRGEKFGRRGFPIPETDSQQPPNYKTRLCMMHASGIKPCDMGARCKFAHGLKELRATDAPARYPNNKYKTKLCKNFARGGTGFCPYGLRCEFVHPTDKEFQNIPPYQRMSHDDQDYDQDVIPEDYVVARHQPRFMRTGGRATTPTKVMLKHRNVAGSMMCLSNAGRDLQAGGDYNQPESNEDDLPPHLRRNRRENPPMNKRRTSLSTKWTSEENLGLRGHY
In words: MEX-5/TCR-2 RNA interaction inhibitors, dose response, biochemical, C. elegans, fluorescence polarization (AID 1960).

The target in experiment [12] is 5-hydroxytryptamine receptor 1E (Homo sapiens, UniProt P28566). In words: Counterscreen assay for S1P3 antagonists: Dose response cell-based high throughput screening assay to identify antagonists of the 5-Hydroxytryptamine Receptor Subtype 1E (5HT1E). [Related pubchem assays: 1429, 485 ]. It counts as functional.
For experiment [13], the target named is T7, Short transient receptor potential channel 4 (Mus musculus, UniProt Q9QUQ5).
T7 sequence (Q9QUQ5 whole entry): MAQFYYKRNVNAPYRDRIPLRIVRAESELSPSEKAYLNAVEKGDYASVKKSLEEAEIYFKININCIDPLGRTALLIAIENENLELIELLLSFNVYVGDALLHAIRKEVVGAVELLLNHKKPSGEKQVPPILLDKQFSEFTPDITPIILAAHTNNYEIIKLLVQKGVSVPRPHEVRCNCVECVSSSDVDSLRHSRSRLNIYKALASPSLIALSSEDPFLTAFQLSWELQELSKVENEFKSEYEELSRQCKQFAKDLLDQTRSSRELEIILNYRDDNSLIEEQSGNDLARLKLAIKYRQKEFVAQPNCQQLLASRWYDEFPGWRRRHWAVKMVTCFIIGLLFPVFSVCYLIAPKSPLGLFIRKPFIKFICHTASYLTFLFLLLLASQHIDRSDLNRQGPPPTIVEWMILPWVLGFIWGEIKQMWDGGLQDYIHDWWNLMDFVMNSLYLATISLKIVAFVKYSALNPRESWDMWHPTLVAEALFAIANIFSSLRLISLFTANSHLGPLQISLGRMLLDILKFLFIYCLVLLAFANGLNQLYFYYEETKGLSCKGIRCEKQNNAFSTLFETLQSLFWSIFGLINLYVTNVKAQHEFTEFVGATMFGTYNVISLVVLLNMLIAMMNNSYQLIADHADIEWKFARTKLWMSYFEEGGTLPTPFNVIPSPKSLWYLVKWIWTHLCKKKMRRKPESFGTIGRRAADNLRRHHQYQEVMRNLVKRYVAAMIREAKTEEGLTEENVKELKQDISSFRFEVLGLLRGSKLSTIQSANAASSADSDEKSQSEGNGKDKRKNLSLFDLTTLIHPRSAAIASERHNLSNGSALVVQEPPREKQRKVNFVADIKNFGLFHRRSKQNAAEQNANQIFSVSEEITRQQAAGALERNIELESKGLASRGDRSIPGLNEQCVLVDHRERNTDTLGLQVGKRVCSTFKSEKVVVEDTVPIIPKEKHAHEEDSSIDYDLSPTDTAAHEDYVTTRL
The experiment is described as follows: mouse TRPC4 channel activators, dose response, cell-based, HEK293 TRPC4/mu-opioid, Fluo-4 calcium (AID 434937). It counts as functional.

Experiment [14] has as its target Sphingosine 1-phosphate receptor 3 (Homo sapiens, UniProt Q99500). The experiment is described as follows: Dose response cell-based high throughput screening assay for antagonists of the Sphingosine 1-Phosphate Receptor 3 (S1P3). [Related pubchem assays: 1429, 485 ]. It counts as functional.

T3 sequence (Q00975 whole entry): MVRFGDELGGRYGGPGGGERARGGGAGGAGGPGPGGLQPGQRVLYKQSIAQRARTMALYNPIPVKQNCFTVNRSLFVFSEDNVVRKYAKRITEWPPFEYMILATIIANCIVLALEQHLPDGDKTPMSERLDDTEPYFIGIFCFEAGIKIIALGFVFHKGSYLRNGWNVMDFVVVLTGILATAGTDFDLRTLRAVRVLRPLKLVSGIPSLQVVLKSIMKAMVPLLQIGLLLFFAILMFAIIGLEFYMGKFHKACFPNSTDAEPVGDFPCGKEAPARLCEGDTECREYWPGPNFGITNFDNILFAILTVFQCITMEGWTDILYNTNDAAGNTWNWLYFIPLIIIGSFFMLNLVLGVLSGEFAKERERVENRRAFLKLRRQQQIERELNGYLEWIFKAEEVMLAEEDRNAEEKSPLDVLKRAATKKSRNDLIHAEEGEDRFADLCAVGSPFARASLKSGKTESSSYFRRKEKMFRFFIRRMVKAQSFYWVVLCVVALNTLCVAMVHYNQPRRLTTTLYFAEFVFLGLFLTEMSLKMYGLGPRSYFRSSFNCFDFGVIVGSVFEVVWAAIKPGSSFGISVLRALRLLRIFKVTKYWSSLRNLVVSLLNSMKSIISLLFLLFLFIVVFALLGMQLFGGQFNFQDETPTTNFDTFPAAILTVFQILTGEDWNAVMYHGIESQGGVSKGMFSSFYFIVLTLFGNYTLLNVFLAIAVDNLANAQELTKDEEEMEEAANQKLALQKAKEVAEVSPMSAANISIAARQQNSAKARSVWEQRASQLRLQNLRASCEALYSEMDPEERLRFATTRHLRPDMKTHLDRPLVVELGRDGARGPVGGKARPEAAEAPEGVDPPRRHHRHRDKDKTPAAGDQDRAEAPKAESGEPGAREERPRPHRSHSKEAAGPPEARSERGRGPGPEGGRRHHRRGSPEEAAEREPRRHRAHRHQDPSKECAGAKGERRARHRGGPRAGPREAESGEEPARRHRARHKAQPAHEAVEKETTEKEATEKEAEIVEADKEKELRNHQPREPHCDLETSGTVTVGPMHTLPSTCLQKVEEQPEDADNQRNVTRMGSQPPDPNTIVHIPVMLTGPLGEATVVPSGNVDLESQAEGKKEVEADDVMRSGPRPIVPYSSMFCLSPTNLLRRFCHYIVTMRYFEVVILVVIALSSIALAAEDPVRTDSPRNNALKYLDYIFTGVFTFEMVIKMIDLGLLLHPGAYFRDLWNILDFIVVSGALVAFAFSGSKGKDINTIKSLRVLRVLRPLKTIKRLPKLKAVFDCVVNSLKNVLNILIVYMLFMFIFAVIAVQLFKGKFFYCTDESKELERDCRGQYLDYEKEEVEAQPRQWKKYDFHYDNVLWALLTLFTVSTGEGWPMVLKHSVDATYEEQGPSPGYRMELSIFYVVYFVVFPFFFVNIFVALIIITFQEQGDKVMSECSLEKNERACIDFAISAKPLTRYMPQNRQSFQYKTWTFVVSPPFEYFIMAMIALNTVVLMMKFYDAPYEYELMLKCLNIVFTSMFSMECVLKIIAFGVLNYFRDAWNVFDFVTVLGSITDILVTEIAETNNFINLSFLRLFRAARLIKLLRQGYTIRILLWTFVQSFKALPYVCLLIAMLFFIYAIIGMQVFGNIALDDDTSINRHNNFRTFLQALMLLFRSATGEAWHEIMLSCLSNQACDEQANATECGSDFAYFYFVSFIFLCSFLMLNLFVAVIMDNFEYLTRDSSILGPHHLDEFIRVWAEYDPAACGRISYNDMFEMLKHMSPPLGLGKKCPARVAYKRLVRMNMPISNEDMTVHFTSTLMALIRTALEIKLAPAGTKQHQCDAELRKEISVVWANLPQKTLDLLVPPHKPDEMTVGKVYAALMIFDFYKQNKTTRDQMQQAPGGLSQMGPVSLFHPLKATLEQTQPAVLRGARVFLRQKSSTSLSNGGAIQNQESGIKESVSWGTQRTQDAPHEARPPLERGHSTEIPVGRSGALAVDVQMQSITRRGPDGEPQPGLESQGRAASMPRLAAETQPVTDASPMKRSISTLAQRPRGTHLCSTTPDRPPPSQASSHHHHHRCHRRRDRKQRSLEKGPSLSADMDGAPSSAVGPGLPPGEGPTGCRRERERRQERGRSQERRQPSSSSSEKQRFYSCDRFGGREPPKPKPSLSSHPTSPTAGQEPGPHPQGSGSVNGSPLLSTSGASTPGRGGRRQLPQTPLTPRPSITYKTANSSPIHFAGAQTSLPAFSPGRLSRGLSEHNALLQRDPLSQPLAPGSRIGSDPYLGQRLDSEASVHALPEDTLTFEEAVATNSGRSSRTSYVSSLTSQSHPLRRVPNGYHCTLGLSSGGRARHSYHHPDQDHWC
T3 sequence (Q02410 whole entry): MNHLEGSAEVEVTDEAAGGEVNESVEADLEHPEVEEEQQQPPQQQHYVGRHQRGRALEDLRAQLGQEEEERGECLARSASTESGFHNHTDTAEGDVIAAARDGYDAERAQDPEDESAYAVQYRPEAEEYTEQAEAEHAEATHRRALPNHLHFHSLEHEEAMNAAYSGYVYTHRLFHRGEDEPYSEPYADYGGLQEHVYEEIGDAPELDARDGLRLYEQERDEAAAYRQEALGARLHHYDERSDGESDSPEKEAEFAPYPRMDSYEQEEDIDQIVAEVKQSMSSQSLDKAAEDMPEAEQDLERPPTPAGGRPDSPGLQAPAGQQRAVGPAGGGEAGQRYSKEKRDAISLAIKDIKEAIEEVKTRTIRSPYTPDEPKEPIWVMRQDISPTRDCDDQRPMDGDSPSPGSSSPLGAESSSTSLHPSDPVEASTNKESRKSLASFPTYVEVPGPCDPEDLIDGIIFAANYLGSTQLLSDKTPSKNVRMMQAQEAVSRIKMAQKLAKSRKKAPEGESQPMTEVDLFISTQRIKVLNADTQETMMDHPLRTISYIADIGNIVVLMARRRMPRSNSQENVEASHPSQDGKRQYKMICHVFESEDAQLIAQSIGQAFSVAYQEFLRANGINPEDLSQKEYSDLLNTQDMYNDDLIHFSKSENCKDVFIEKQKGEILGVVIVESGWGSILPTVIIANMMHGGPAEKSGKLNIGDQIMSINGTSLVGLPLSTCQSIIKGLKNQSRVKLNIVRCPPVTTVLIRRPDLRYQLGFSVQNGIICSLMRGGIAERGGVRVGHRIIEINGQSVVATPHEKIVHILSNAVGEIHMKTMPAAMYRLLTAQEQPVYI
Sequence of Bcl-2-like protein 1 (Q07817 whole entry): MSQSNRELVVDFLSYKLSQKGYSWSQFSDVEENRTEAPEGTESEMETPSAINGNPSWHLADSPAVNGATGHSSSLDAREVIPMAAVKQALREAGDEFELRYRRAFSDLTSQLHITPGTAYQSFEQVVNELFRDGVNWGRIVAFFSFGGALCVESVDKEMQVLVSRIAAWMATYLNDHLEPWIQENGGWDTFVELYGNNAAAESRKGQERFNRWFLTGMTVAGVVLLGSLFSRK
Sequence of NADPH oxidase 1 (Q9Y5S8 whole entry): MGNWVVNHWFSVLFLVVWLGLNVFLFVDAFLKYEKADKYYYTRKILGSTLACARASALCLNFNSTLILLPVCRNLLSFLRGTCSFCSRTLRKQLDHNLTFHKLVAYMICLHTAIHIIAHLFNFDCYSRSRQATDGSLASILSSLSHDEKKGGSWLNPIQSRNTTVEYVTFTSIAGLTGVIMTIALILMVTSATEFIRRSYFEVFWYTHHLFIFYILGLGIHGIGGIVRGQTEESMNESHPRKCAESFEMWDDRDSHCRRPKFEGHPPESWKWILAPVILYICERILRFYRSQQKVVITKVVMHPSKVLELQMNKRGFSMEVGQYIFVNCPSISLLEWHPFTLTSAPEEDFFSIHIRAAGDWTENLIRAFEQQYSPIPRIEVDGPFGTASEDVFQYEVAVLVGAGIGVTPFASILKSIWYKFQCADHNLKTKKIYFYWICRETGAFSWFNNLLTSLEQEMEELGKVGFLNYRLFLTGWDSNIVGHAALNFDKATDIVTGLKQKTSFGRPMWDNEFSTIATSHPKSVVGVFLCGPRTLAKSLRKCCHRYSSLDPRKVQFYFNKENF
Sequence of Luciferin 4-monooxygenase (P08659 whole entry): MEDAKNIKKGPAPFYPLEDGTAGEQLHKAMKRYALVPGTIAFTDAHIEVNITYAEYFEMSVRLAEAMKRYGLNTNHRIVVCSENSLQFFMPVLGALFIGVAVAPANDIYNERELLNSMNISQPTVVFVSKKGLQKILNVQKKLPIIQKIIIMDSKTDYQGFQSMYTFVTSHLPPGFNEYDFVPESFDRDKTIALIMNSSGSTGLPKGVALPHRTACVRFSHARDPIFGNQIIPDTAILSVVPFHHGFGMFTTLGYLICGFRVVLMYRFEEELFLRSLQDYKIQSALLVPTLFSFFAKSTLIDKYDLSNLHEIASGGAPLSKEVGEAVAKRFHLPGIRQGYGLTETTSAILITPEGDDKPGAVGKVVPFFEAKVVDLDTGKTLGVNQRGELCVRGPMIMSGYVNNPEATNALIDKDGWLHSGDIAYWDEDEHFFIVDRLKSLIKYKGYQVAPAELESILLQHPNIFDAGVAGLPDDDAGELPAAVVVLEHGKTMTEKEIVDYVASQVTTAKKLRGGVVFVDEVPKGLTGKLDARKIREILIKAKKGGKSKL
Sequence of 5-hydroxytryptamine receptor 1E (P28566 whole entry): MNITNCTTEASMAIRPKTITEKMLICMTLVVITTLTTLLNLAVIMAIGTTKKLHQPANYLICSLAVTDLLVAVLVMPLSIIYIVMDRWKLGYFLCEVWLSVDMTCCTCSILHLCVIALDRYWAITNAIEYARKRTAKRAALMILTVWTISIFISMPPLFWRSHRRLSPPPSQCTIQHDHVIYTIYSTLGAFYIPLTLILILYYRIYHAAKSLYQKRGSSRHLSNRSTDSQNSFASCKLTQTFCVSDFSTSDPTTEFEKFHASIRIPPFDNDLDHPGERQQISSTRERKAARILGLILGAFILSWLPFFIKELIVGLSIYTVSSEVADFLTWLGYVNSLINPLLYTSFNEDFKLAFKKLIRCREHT

Broadly, the EC50 is the concentration needed to bring the measured effect to its halfway point. In the case of `O=C(Nc1cccc(NC(=O)c2ccccc2Cl)c1)c1ccco1`, the EC50 is 5.86 µM (active) in [1], < 1 µM (active) in experiment [2], > 112 µM (not active) in experiment [3] and < 0.3 µM (active) in [4].
For orientation: IC50 means the midpoint of a concentration-inhibition curve. One may read the AC50 as the concentration at which the activity in the assay is half-maximal. For the compound `CC(=O)OCCCNc1cc(SCc2ccco2)c2nonc2c1[N+](=O)[O-]`, the 50% effective concentration (EC50) on Protein RecA was 3.49 µM (active). Moreover, the results for the IC50 (at Bcl-2-like protein 1; in [6]) were > 109 µM (not active) and > 36.3 µM (not active), respectively. The AC50 in [5] was 4.6 µM (active).
As to `CC(=O)N1c2ccccc2Sc2ccccc21`, the IC50 on NADPH oxidase 1 was 4.57 µM (active).
As to `NC1=CC(=O)c2cccc3cccc1c23`, the IC50 in experiment [7] is > 50 µM (inactive); in experiment [9] it was 12.7 µM (active); in experiment [10], 16.7 µM (active). Besides, the concentration giving a half-maximal response (EC50) in experiment [8] is 7.46 µM (inconclusive); in experiment [11], 1.98 µM (inconclusive).
Turning to `O=C(CCCN1CCC2(CC1)C(=O)NCN2c1ccccc1)c1ccc(F)cc1` [SPIPERONE], the IC50 in experiment [12] and in experiment [14] was > 50 µM (not active) throughout. Besides, the EC50 in experiment [13] is 6.68 µM (active).
